From US7820703B2, “Lysophosphatidic acid receptor selective antagonists” (University of Virginia Patent Foundation, priority 2004, dated 2010)
Entries after “also recorded” stand apart in the source; their conditions may differ. One block for each compound: values may come before it.

Columns and labels:
Assay type in all cases: biochemical
[1] = molecular target: T1, human LPA2 (Homo sapiens, UniProt Q9HBW0); test: GTP[γ35S] binding assay, agonist activity at LPA2; design: expressed in transfected cells; host or cells: HEK293T cells (membranes); conditions: for EC50: transfected HEK293T cell membranes; for LPA2 Emax: LPA = 100
T1 sequence (Q9HBW0 whole entry): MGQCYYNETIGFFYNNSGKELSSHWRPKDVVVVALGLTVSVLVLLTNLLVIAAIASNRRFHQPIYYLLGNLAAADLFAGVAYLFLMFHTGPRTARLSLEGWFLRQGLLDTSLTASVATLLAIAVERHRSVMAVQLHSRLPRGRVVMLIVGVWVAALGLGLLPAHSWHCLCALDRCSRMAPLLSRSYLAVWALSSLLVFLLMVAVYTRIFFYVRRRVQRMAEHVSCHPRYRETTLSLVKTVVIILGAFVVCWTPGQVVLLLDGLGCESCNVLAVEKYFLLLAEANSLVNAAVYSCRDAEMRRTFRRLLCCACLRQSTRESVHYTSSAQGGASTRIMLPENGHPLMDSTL
Protocol: (§1) The appropriate receptor plasmid DNA (encoding mouse LPA1, human LPA2 or human LPA3) was mixed with equal amounts of expression plasmids (pcDNA3) encoding a mutated (C351F) rat Gi2a, cow β1, and γ2 proteins and these DNAs were used to transfect monolayers of HEK293T cells (where ‘T’ indicates expression of the SV-40 virus large T antigen) using the calcium phosphate precipitate method. After about 60 hours, cells were harvested, membranes were prepared, aliquoted and stored at −70° C. until use.
(§2) The GTP[35 γS] assay was performed as described by us previously. Membranes containing 5 ug of protein were incubated in 0.1 ml GTP-binding buffer (in mM: HEPES 50, NaCl 100, MgCl2 10, pH7.5) containing […], […], 0.1 nM GTP[35 γS] (1200 Ci/mmol), and indicated lipid(s) for 30 minutes at 30° C. Samples were analyzed for membrane-bound radionuclide using a Brandel Cell Harvester (Gaithersburg, Md.).
(§3) Membranes prepared from these cells are used to measure GTPγ[^35S] binding as a function of test compound concentration. The resulting dose-response curves provide relative potency (EC50) and efficacy (Emax) for the test compounds.

[2] = molecular target: T2, human LPA3 (Homo sapiens, UniProt Q9UBY5); test: GTP[γ35S] binding assay, agonist activity at LPA3; design: expressed in transfected cells; host or cells: HEK293T cells (membranes); conditions: for LPA3 Emax: LPA = 100; for EC50: transfected HEK293T cell membranes
T2 sequence (Q9UBY5 1-353): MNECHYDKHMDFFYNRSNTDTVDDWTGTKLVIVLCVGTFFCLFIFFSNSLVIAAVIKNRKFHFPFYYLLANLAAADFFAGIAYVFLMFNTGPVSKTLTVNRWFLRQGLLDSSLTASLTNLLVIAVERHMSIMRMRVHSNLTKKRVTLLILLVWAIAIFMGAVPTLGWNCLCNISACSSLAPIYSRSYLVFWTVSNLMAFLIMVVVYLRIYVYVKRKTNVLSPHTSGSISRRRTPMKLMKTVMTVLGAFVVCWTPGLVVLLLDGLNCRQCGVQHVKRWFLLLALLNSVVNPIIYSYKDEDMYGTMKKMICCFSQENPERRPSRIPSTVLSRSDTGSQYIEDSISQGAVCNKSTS
Protocol: as §1
as §2, with “Md.). The C351F mutation renders the Gi2α protein resistant to inactivation by pertussis toxin or the alkylating agent N-ethylmaleimide; however in practice background binding was sufficiently low to obviate these maneuvers.” for “Md.).”
(§4) This assay isolates each recombinant LPA receptor and allows analysis of all three receptors using the same system.
as §3

[3] = molecular target: T3, LPA1 receptor (Mus musculus, UniProt P61793); test: antagonism of LPA-evoked GTP[γ35S] binding at LPA1; conditions: for antagonist activity at LPA1, in words: GTP[γ35S] binding; for IC50: antagonism of LPA-evoked GTP[γ35S] binding; for Ki: determined by Schild regression
T3 construct: expressed in transfected cells; host or cells: HEK293T cells (membranes)
T3 sequence (P61793 whole entry): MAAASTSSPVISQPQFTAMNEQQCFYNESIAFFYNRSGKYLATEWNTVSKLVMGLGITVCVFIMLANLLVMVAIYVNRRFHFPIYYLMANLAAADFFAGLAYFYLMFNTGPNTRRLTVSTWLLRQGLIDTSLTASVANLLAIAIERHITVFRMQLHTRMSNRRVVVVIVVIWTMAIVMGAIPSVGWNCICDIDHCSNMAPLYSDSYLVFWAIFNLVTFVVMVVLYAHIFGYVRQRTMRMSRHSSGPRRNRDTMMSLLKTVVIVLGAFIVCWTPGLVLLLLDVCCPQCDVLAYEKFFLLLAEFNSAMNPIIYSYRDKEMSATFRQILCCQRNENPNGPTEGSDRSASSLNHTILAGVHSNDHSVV
Protocol: as §1, §2
(§5) The X-intercept of the linear transformation is equal to the inverse log of the KI.
(§6) All compounds were characterized by ^1H and ^13C NMR, mass spectroscopy and, in certain cases, elemental analysis. A GTP[γ35S] binding assay was adapted to assess in vitro activity.
(§7) All compounds were characterized by ^1H and ^13C NMR, mass spectroscopy and, in most cases, C, H, N analyses. A membrane-based GTP[γ^35S] binding assay was adapted to assess in vitro activity at the LPA1 and LPA3 receptors.

[4] = molecular target: T2, human LPA3; test: antagonism of LPA-evoked GTP[γ35S] binding at LPA3; design: expressed in transfected cells; host or cells: HEK293T cells (membranes); conditions: for antagonist activity at LPA3, in words: GTP[γ35S] binding; for IC50: antagonism of LPA-evoked GTP[γ35S] binding
Protocol: as §1, §2, §5, §6, §7

[5] = molecular target: mouse LPA1 (Mus musculus, UniProt P61793); test: GTP[γ35S] binding assay, agonist activity at LPA1; design: expressed in transfected cells; host or cells: HEK293T cells (membranes); conditions: for LPA1 Emax: LPA = 100; for EC50: transfected HEK293T cell membranes
mouse LPA1, sequence (P61793 whole entry): as above
Protocol: as §1
as §2, with “Md.). The C351F mutation renders the Gi2α protein resistant to inactivation by pertussis toxin or the alkylating agent N-ethylmaleimide; however in practice background binding was sufficiently low to obviate these maneuvers.” for “Md.).”
as §4, §3

[6] = molecular target: T4, LPP3 (PAP2b) (Homo sapiens, UniProt O14495); test: LPP inhibition, competition with [32P]LPA, LPP3; conditions: competition with 50 nM [32P]LPA
T4 sequence (O14495 1-311): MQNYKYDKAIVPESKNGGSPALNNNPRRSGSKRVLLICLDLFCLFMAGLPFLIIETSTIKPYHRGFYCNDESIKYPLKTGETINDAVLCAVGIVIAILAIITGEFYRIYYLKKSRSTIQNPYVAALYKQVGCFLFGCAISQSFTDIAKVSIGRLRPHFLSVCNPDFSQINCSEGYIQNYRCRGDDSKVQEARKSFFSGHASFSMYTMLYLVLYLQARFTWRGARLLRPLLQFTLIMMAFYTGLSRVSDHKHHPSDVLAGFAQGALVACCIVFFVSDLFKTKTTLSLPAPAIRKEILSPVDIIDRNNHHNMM
Protocol: NOHPP was also tested for activity at the three cloned LPPs. Although the phosphonate head group eliminates the possibility of NOHPP acting as a substrate, it is possible that the compound could be a competitive inhibitor.

[7] = molecular target: T1, human LPA2; test: antagonism of LPA-evoked GTP[γ35S] binding at LPA2; design: expressed in transfected cells; host or cells: HEK293T cells (membranes)
Protocol: as §1
as §2, with “Md.). The C351F mutation renders the Gi2α protein resistant to inactivation by pertussis toxin or the alkylating agent N-ethylmaleimide; however in practice background binding was sufficiently low to obviate these maneuvers.” for “Md.).”
All compounds were characterized by ^1H and ^13C NMR, mass spectroscopy and, in certain cases, elemental analysis. A GTP[γ35S] binding assay was adapted to assess in vitro activity. […] The Ki values as determined by Schild regression are shown for the LPA1 receptor. […]

Compound: 1-acyl, 2-hydroxyl-sn-glycerol-3-phosphate [LPA, reference compound]
EC50 [1]: 6.8 nM | LPA3 Emax [2]: 100 | EC50 [2]: 262 nM

Compound: CCCCCC=CCC=CCCCCCCCC(=O)NC(COP(=O)(O)O)Cc1ccc(OCc2ccccc2)cc1 (stereo not shown) [Compound 29e]
antagonist activity at LPA1, in words [3]: potency comparable to lead compound 26

Compound: CCCCCCCCC=CCCCCCCCC(=O)NC(COP(=O)(O)O)Cc1ccc(OC(=O)c2ccc(N)cc2)cc1 (stereo not shown) [Compound 35p]
antagonist activity at LPA1, in words [3]: devoid of activity | antagonist activity at LPA3, in words [4]: devoid of activity

Compound: CCCCCCCC/C=C\CCCCCCCC(=O)N[C@@H](COP(=O)(O)O)C(=O)c1ccc(OCc2ccccc2)cc1 [Compound 39a]
IC50 [3]: > 10000 nM | IC50 [4]: > 10000 nM

Compound: CCCCCCCC/C=C\CCCCCCCC(=O)N[C@H](COP(=O)(O)O)C(=O)c1ccc(OCc2ccccc2)cc1 [Compound 39b]
antagonist activity at LPA1, in words [3]: retains potency comparable to 26 | IC50 [3]: 2490 nM | IC50 [4]: > 10000 nM

Compound: CCCCCCCC/C=C\CCCCCCCC(=O)N[C@H](COP(=O)(O)O)Cc1ccc(OCc2cccc(OC)n2)cc1 [Compound 57f]
IC50 [3]: > 10000 nM | IC50 [4]: 1090 nM

Compound: CCCCCCCC/C=C\CCCCCCCC(=O)N[C@@H](COP(=O)(O)O)Cc1ccc(OCc2cc(OCC)ccn2)cc1 [Compound 57h]
IC50 [3]: 143 nM | Ki [3]: 26 nM | IC50 [4]: 39 nM

Compound: CCCCCCCCC=CCCCCCCCC(=O)NC(COP(=O)(O)O)Cc1ccc(OCc2cc(OCC(F)(F)F)ccn2)cc1 (stereo not shown) [Compound 57i]
antagonist activity at LPA1, in words [3]: equipotent to 26a | IC50 [3]: 84 nM | Ki [3]: 19 nM | antagonist activity at LPA3, in words [4]: three-fold more potent | IC50 [4]: 48 nM

Compound: CCCCCCCC/C=C\CCCCCCCC(=O)N[C@@H](COP(=O)(O)O)Cc1ccc(OCc2cc(OCCC)ccn2)cc1 [Compound 57j]
IC50 [3]: 141 nM | Ki [3]: 64 nM

Compound: CCCCCCCC/C=C\CCCCCCCC(=O)N[C@@H](COP(=O)(O)O)Cc1ccc(OCc2ncc(C)c(OC)c2C)cc1 [Compound 57l]
IC50 [3]: 62 nM | Ki [3]: 28 nM | IC50 [4]: 39 nM

Compound: CCCCCCCC/C=C\CCCCCCCC(=O)N[C@H](COP(=O)(O)O)Cc1ccc(OCc2ncc(C)c(OC)c2C)cc1 [Compound 57m]
IC50 [3]: 3690 nM | IC50 [4]: 561 nM

Compound: CCCCCCCC/C=C\CCCCCCCC(=O)N[C@@H](COP(=O)(O)O)Cc1ccc(OCc2ccc3ccccc3n2)cc1 [Compound 57n]
IC50 [3]: 1430 nM | IC50 [4]: 533 nM

Compound: CCCCCCCC/C=C\CCCCCCCC(=O)N[C@H](COP(=O)(O)O)Cc1ccc(OCc2cc(OC)c3ccccc3n2)cc1 [Compound 57p]
IC50 [3]: > 10000 nM | IC50 [4]: 2600 nM

Compound: CCCCCCCC/C=C\CCCCCCCC(=O)N[C@@H](CN)COP(=O)(O)O [Compound 12048]
LPA1 Emax [5]: 9.4 | EC50 [5]: > 5000 nM | LPA2 Emax [1]: 36.4 | EC50 [1]: > 5000 nM | LPA3 Emax [2]: 3.8 | EC50 [2]: > 5000 nM

Compound: CCCCCCCC/C=C\CCCCCCCC(=O)NCCC(=O)P(=O)(O)O [VPC12060]
inhibition of LPP3 [6]: markedly better at the PAP2b (LPP3) than PAP2a (LPP1)

Further lines, with some results ahead:

antagonist activity at LPA1, in words [3]: no antagonism | IC50 [3]: > 10000 nM | antagonist activity at LPA3, in words [4]: improved potency over lead compound 26a | IC50 [4]: 150 nM
Compound: CCCCCCCC/C=C\CCCCCCCC(=O)N[C@@H](CCP(=O)(O)O)Cc1ccc(OCc2ncc(C)c(OC)c2C)cc1 [Compound 63d]

LPA1 Emax [5]: 107.6 | EC50 [5]: 3.4 nM | LPA2 Emax [1]: 95.2 | EC50 [1]: 18.3 nM | LPA3 Emax [2]: 93.4 | EC50 [2]: 113 nM
Compound: CCCCCCCC/C=C\CCCCCCCC(=O)N[C@H](C)COP(=O)(O)O [VPC12086]
agonist activity at LPA1, in words [5]: more potent and efficacious than LPA; also recorded: more potent than 1-oleoyl LPA

LPA1 Emax [5]: 48.1 | EC50 [5]: 2900 nM | LPA2 Emax [1]: 6.9 | EC50 [1]: > 5000 nM | LPA3 Emax [2]: 9.7 | EC50 [2]: > 5000 nM
Compound: CCCCCCCC/C=C\CCCCCCCC(=O)N[C@@H](C)COP(=O)(O)O [VPC12101]

LPA1 Emax [5]: 66.8 | EC50 [5]: 35.8 nM | LPA2 Emax [1]: 92.6 | EC50 [1]: 162 nM | LPA3 Emax [2]: 83.5 | EC50 [2]: 1080 nM
Compound: CCCCCCCC/C=C\CCCCCCCC(=O)N[C@H](CC)COP(=O)(O)O [VPC12109]

agonist activity at LPA1, in words [5]: more potent than 1-oleoyl LPA | LPA1 Emax [5]: 98.7 | EC50 [5]: 4.9 nM | LPA2 Emax [1]: 103.2 | EC50 [1]: 50.3 nM | LPA3 Emax [2]: 102.9 | EC50 [2]: 684 nM
Compound: CCCCCCCC/C=C\CCCCCCCC(=O)N[C@H](CN)COP(=O)(O)O [VPC12178]

agonist activity at LPA1, in words [5]: more potent than 1-oleoyl LPA
Compound: CCCCCCCC/C=C\CCCCCCCC(=O)N[C@H](CO)COP(=O)(O)O [VPC31143]

agonist activity at LPA1, in words [5]: agonist | agonist activity at LPA3, in words [2]: agonist | antagonist activity at LPA2, in words [7]: antagonist activity
Compound: CCCCCCCC/C=C\CCCCCCCC(=O)N[C@@H](COP(=O)(O)O)Cc1ccc(OCc2ccc(CCCCC)cc2)cc1 [VPC31162]
